Values after ≈ are worked out from the molar mass of the structure shown.
Assays:
[1] = test system: myofibroblast formation; details: animal studies of capsular contracture with breast implants (Ajmal et al. 2003); cited from earlier work
[2] = test system: Escherichia coli ATCC 8739; test: Broth dilution MIC; assay type: cell-based; details: ATCC8739, E. coli, read-out: Minimum Inhibitory Concentration
Excerpt: (§1) Establishing the MIC of antimicrobials is a necessary step in the process of establishing effective use concentrations. Approved standards for this activity with antibiotics are published by NCCLS. These standards are primarily intended for use in clinical settings with patient isolates. However, they represent a consensus methodology for best practice in determining MICs that are reproducible and defensible. The principles upon which they are based provide a sound framework for determining the MIC for the test.
(§2) The broth dilution method was used to measure quantitatively the in vitro activity of an antimicrobial agent against a given microbial isolate. To perform the test, a series of tubes were prepared with a broth to which various concentrations of the antimicrobial agent were added. The tubes were then inoculated with a standardized suspension of the test organism. After incubation the tubes were examined and the minimal inhibitory concentration (MIC) was determined.
(§3) The following organism were used: Acinetobacter baumanii A TCC 19606; Staphylococcus epidermidis A TCC 14990; Staphylococcus aureus ATCC 6538; Methicillin-resistant Staphylococcus aureus ATCC 33591; Escherichia coli ATCC 8739; Staphylococcus capitis ATCC 35661; or Staphylococcus schleiferi ATCC 43808.

[3] = test system: Acinetobacter baumanii A TCC 19606; test: Broth dilution MIC; assay type: cell-based; details: Acinetobacter baumannii, ATCC19606, read-out: Minimum Inhibitory Concentration
Excerpt: as §1, §2, §3

[4] = test system: Staphylococcus aureus ATCC 6538; test: Broth dilution MIC; assay type: cell-based; details: ATCC6538, S. aureus, read-out: Minimum Inhibitory Concentration
Excerpt: as §1, §2, §3

[5] = test system: Staphylococcus schleiferi ATCC 43808; test: Broth dilution MIC; assay type: cell-based; details: ATCC43808, read-out: Minimum Inhibitory Concentration
Excerpt: as §1, §2, §3

[6] = test system: Methicillin-resistant Staphylococcus aureus ATCC 33591; test: Broth dilution MIC; assay type: cell-based; details: ATCC 33591 / MRSA, read-out: Minimum Inhibitory Concentration
Excerpt: as §1, §2, §3

[7] = test system: Staphylococcus capitis ATCC 35661; test: Broth dilution MIC; assay type: cell-based; details: ATCC35661, S. capitis, read-out: Minimum Inhibitory Concentration
Excerpt: as §1, §2, §3

[8] = test system: Staphylococcus epidermidis A TCC 14990; test: Broth dilution MIC; assay type: cell-based; details: ATCC14990, S. epidermidis, read-out: Minimum Inhibitory Concentration
Excerpt: as §1, §2, §3

| SMILES | myofibroblast formation [1] | MIC [2] | MIC [3] | MIC [4] | MIC [5] | MIC [6] | MIC [7] | MIC [8] |
| --- | --- | --- | --- | --- | --- | --- | --- | --- |
| O=S(=O)([O-])CCS.[Na+] [Mesna, sodium 2-mercaptoethane sulfonate] | diminish myofibroblast formation | – | – | – | – | – | – | – |
| CN(C)c1ccc(O)c2c1C[C@H]1C[C@H]3[C@H](N(C)C)C(O)=C(C(N)=O)C(=O)[C@@]3(O)C(O)=C1C2=O [Minocycline] | – | 2.23 µg/mL (≈ 4.88 µM) | 0.14 µg/mL (≈ 0.306 µM) | 0.017 µg/mL (≈ 0.0372 µM) | 0.017 µg/mL (≈ 0.0372 µM) | 2.23 µg/mL (≈ 4.88 µM) | 0.017 µg/mL (≈ 0.0372 µM) | 0.017 µg/mL (≈ 0.0372 µM) |
| CO[C@H]1/C=C/O[C@@]2(C)Oc3c(C)c(O)c4c(O)c(c(/C=N/N5CCN(C)CC5)c(O)c4c3C2=O)NC(=O)/C(C)=C\C=C\[C@H](C)[C@H](O)[C@@H](C)[C@@H](O)[C@@H](C)[C@H](OC(C)=O)[C@@H]1C [Rifampin] | – | 2.06 µg/mL (≈ 2.5 µM) | 0.129 µg/mL (≈ 0.157 µM) | 0.016 µg/mL (≈ 0.0194 µM) | 0.016 µg/mL (≈ 0.0194 µM) | 2.06 µg/mL (≈ 2.5 µM) | 0.016 µg/mL (≈ 0.0194 µM) | 0.016 µg/mL (≈ 0.0194 µM) |
